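Exposure lasted 48 hours, with cells grown in 96-well plates and compounds tested at five concentrations. TGI: total growth inhibition.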
Assays:
Experiment in all cases: NCI anticancer screen, dose series, 48 h
CCRF-CEM leukemia = system: CCRF-CEM leukemia
HCT-15 colon = system: HCT-15 colon
HOP-92 NSCLC = system: HOP-92 NSCLC
IGROV1 ovarian = system: IGROV1 ovarian
K-562 leukemia = system: K-562 leukemia
LOX IMVI melanoma = system: LOX IMVI melanoma
M14 melanoma = system: M14 melanoma
MALME-3M melanoma = system: MALME-3M melanoma
MDA-MB-231 breast = system: MDA-MB-231 breast
NCI-H226 lung = system: NCI-H226 lung
NCI-H460 lung = system: NCI-H460 lung
OVCAR-4 ovarian = system: OVCAR-4 ovarian
OVCAR-5 ovarian = system: OVCAR-5 ovarian
RXF 393 renal = system: RXF 393 renal
SK-MEL-5 melanoma = system: SK-MEL-5 melanoma
SK-OV-3 ovarian = system: SK-OV-3 ovarian
SN12C renal = system: SN12C renal
SW-620 colon = system: SW-620 colon
TK-10 renal = system: TK-10 renal
UACC-257 melanoma = system: UACC-257 melanoma

SMILES	TGI (CCRF-CEM leukemia)	TGI (HCT-15 colon)	TGI (HOP-92 NSCLC)	TGI (IGROV1 ovarian)	TGI (K-562 leukemia)	TGI (LOX IMVI melanoma)	TGI (M14 melanoma)	TGI (MALME-3M melanoma)	TGI (MDA-MB-231 breast)	TGI (NCI-H226 lung)	TGI (NCI-H460 lung)	TGI (OVCAR-4 ovarian)	TGI (OVCAR-5 ovarian)	TGI (RXF 393 renal)	TGI (SK-MEL-5 melanoma)	TGI (SK-OV-3 ovarian)	TGI (SN12C renal)	TGI (SW-620 colon)	TGI (TK-10 renal)	TGI (UACC-257 melanoma)
CCOC(=O)C1(Cc2ccccc2)C=CN(C(=O)c2ccccc2)C=C1	61.5 µM	> 100 µM	80 µM	> 100 µM	> 100 µM	> 100 µM	> 100 µM	88.9 µM	> 100 µM	> 100 µM	> 100 µM	> 100 µM	> 100 µM	> 100 µM	29.8 µM	> 100 µM	> 100 µM	> 100 µM	88.3 µM	51.1 µM
C/C(Cl)=N/OC(=O)Nc1ccc(S(N)(=O)=O)c(C)c1	3.99 µM	3.86 µM	4.7 µM	33.4 µM	3.35 µM	6.19 µM	25.2 µM	4.5 µM	22 µM	47.6 µM	> 100 µM	29.3 µM	34.4 µM	31.9 µM	26.1 µM	> 58.3 µM	26.8 µM	3.27 µM	17.9 µM	27.9 µM
CN(CCC(=O)O)C1=Nc2ccc(Cl)cc2C(c2ccccc2)=[N+]([O-])C1	> 100 µM	> 100 µM	> 100 µM	> 100 µM	> 100 µM	> 100 µM	> 100 µM	> 100 µM	> 100 µM	> 100 µM	> 100 µM	> 100 µM	> 100 µM	> 100 µM	> 100 µM	> 100 µM	> 100 µM	> 100 µM	> 100 µM	> 100 µM
c1ccc(-c2cn3c(nc4ccccc43)c(-c3ccccc3)n2)cc1	> 100 µM	> 100 µM	62 µM	> 100 µM	> 100 µM	> 100 µM	> 100 µM	> 100 µM	> 100 µM	> 96.7 µM	> 100 µM	> 26 µM	> 100 µM	> 54.3 µM	> 100 µM	38.4 µM	> 100 µM	> 100 µM	> 93.4 µM	> 100 µM
CC1(C)C2CCC(CN)(C2)C1N (stereo not given)	> 100 µM	> 100 µM	> 100 µM	> 100 µM	> 100 µM	> 100 µM	> 100 µM	> 100 µM	> 100 µM	> 100 µM	> 100 µM	> 100 µM	> 100 µM	> 100 µM	> 100 µM	> 100 µM	> 100 µM	> 100 µM	> 100 µM	> 100 µM
O=C(O)CCC(=O)Nc1ccc2ccccc2c1	> 100 µM	> 100 µM	> 100 µM	> 100 µM	> 100 µM	> 100 µM	> 100 µM	> 100 µM	> 100 µM	> 100 µM	> 100 µM	> 100 µM	> 100 µM	> 100 µM	> 100 µM	> 100 µM	> 100 µM	> 100 µM	> 100 µM	> 100 µM
COC(=O)C1=C(O)C(C(=O)OC)[C@]2(O)[C@H](C(=O)OC)[C@H]1C[C@@H](c1ccc(Cl)cc1)[C@H]2C(=O)OC (stereo not given in full)	> 100 µM	47.7 µM	73.6 µM	> 100 µM	> 100 µM	30.1 µM	19.5 µM	25.1 µM	37.6 µM	38.2 µM	49.4 µM	> 100 µM	40.3 µM	19.1 µM	20.5 µM	23.4 µM	79.6 µM	> 100 µM	33.5 µM	26.5 µM
COC1(C)CP(=O)(OC(C)C)CC(C)=C1Cl (stereo not given)	15.7 µM	29.2 µM	25.6 µM	29.6 µM	7.89 µM	39.4 µM	46.2 µM	40.8 µM	34.1 µM	78.2 µM	66.3 µM	28.6 µM	39 µM	55.2 µM	26.6 µM	> 100 µM	45.8 µM	32.4 µM	33.2 µM	72.1 µM
CCCCCCCCCCCCN(CC(O)C(O)C(OC1OC(CO)C(O)C(O)C1O)C(O)CO)C(=O)CCCCCCCCCCC (stereo not given)	65.1 µM	35.4 µM	39.5 µM	35.8 µM	35.5 µM	41.3 µM	39.7 µM	36 µM	42.7 µM	44.6 µM	39.7 µM	44.5 µM	> 100 µM	67.5 µM	31.3 µM	52.6 µM	45.4 µM	33.6 µM	29.9 µM	36.6 µM
COc1cc2ncnc(Nc3cccc(Cl)c3)c2cc1OC	19.6 µM	52.8 µM	38.9 µM	10.3 µM	47.3 µM	43 µM	25.4 µM	19.8 µM	54 µM	14.8 µM	40.7 µM	75.8 µM	47.2 µM	26.8 µM	17.4 µM	28.9 µM	45.8 µM	45 µM	3.61 µM	37.4 µM
CCOC(=O)N(NC(=O)NC(C)C)c1ccccc1	> 100 µM	> 100 µM	> 100 µM	> 100 µM	> 100 µM	> 100 µM	> 100 µM	> 100 µM	> 100 µM	> 100 µM	> 100 µM	> 100 µM	> 100 µM	> 100 µM	> 100 µM	> 100 µM	> 100 µM	> 100 µM	> 100 µM	> 100 µM
COc1ccc2c(c1)-c1nc(=S)n(CCCN(C)C)c3ccc([N+](=O)[O-])c(c13)N2	1.41 µM	17.1 µM	20.7 µM	2.41 µM	3.04 µM	4.57 µM	22.1 µM	2.33 µM	2.1 µM	24.4 µM	10.3 µM	2.52 µM	3.62 µM	1.87 µM	10.1 µM	19.4 µM	10.3 µM	7.18 µM	17.1 µM	3.6 µM
Clc1ccccc1-c1nc2ccc(C34CC5CC(CC(C5)C3)C4)cc2[nH]1	> 100 µM	> 100 µM	27.1 µM	50.4 µM	> 100 µM	29.8 µM	70.7 µM	98.5 µM	37.9 µM	> 100 µM	> 100 µM	> 100 µM	54 µM	20.8 µM	> 100 µM	42.9 µM	88.5 µM	> 100 µM	64.6 µM	> 100 µM
Cc1c(C)c(C)n(C2OC(CO)C(O)C(O)C2O)c(=S)c1C#N (stereo not given)	> 100 µM	> 100 µM	> 100 µM	> 100 µM	> 100 µM	> 100 µM	> 100 µM	> 100 µM	> 100 µM	> 100 µM	> 100 µM	> 100 µM	> 100 µM	> 100 µM	> 100 µM	> 100 µM	> 100 µM	> 100 µM	> 100 µM	> 100 µM
COC(=O)c1cc(C)ccc1C1CN=NC12Cc1ccc(C)cc1C2=O (stereo not given)	> 100 µM	> 100 µM	66.5 µM	> 100 µM	> 100 µM	> 100 µM	> 100 µM	> 100 µM	> 100 µM	> 100 µM	> 100 µM	> 100 µM	> 100 µM	> 100 µM	31.9 µM	> 100 µM	> 100 µM	> 100 µM	> 100 µM	> 100 µM
O=c1[nH]nc(-c2ccccc2)n1/N=C/c1ccc([N+](=O)[O-])cc1	> 100 µM	> 100 µM	32 µM	> 100 µM	> 100 µM	> 100 µM	> 100 µM	> 100 µM	> 63.8 µM	> 75 µM	> 100 µM	> 100 µM	> 100 µM	28.1 µM	> 100 µM	9.34 µM	> 100 µM	> 100 µM	55 µM	> 100 µM
C[N+](C)(C)CCCSc1nc2ccccc2[nH]1	> 100 µM	> 100 µM	> 100 µM	> 100 µM	> 100 µM	> 100 µM	> 100 µM	> 100 µM	> 100 µM	> 100 µM	> 100 µM	> 100 µM	> 100 µM	> 100 µM	> 100 µM	> 100 µM	> 100 µM	> 100 µM	> 100 µM	> 100 µM
Cc1cc2cc3c(cc2c(-c2ccc([N+](=O)[O-])cc2)n1)OCO3	> 100 µM	> 100 µM	56.8 µM	54.9 µM	> 100 µM	> 100 µM	> 100 µM	> 100 µM	84.4 µM	89.8 µM	> 100 µM	56.8 µM	> 100 µM	> 100 µM	> 100 µM	71.2 µM	> 100 µM	> 100 µM	> 100 µM	> 100 µM
CCOC(=O)c1oc2cc3c(c4c2c1-c1ccccc1N4C)C=CC(C)(C)O3	> 100 µM	> 100 µM	17.7 µM	46.5 µM	> 91 µM	> 100 µM	> 100 µM	54.3 µM	> 100 µM	48.9 µM	> 100 µM	> 100 µM	> 100 µM	28.9 µM	97.9 µM	69.4 µM	> 100 µM	> 100 µM	27.3 µM	> 100 µM

From PubChem BioAssay (NCI)
